Test results from patent US20250360111A1, “COMPOSITIONS OF AGPAT4 INHIBITORS AND METHODS OF USING THEREOF TO TREAT CANCER” (The University of Hong Kong, priority 2024, published 2025).

How the values were obtained:
[1] = system: AGPAT LPAAT family members (AGPAT1, 2, 3, 4 and 5); assay: Isoform specificity: streptavidin pulldown and immunoblotting of CL26-alkyne-bound proteins; format: cell-based, human; conditions: Huh7 cells, DTB-PEG-azide, streptavidin pulldown
Protocol: An in-gel fluorescence assay was performed to investigate the protein targets of CL26. Huh7 cells overexpressing AGPAT4 or cysteine mutants were pre-treated with CL26 at the indicated concentrations for 2 h, followed by CL26-alkyne (1 μM) treatment for another 2 h. Cells were harvested in RIPA buffer supplemented with protease and phosphatase inhibitors (Thermo Fisher Scientific #A32961). The proteins were precipitated by incubation with 6× volume of pre-chilled acetone at −20° C. overnight. Proteins were pelleted by centrifugation at 5000 g for 10 min and resuspended in PBS. The protein content was measured using the BCA assay and normalized to 2 mg/mL. Cell lysates (50 μL) were labelled with azide-fluor 545 by click reaction (final reaction mixture: azide-fluor 545 (25 μM), copper(II) sulfate (1 mM), TBTA (100 μM), and freshly prepared TCEP (1 mM)) at room temperature with constant agitation. After incubation for 1 h, the reaction was quenched with the sampling buffer and boiled at 90° C. for 5 min. Samples were subjected to SDS-PAGE, in-gel fluorescence was captured using ChemiDoc MP (Bio-Rad), and Coomassie Blue staining was performed. Similarly, immunoblotting was used to investigate the protein targets of CL26. […] The samples were subjected to SDS-PAG E and imaged for fluorescence signals before western blot analysis. […]

[2] = system: MHCC97L and MHCC97H vs. Huh7 and LO2 cells; assay: XTT assay, viability assay and excess over bliss synergy analysis; format: cell-based, human; conditions: CL26 combined with sorafenib, 48 h
Protocol: (§1) Cells (1×10^3 cells/well) were seeded in 96-well plates and cultured in complete medium for 24 h. Subsequently, sorafenib and/or CL26 was added to the culture and incubated for 48 h. The XTT tetrazolium reagent (Gold Biotechnology) and phenazine methosulfate (Thermo Fisher Scientific) were premixed and added to each well. The absorbance at 450 nm was measured using a Victor 3 microplate reader (PerkinElimer). Drug interactions were evaluated using the bliss independence model. According to this model, the expected growth inhibition (Eexp) resulting from the combination of drugs A and B was calculated using the following equation: Eexp=Ea+Eb−Ea×Eb, with Ea representing the growth inhibition caused by drug A alone and Eb representing the growth inhibition caused by drug B alone. To assess drug interactions, the difference between the observed growth inhibition (Eobs) and expected growth inhibition (Eexp) was calculated.
(§2) 1×10^4 cells were seeded in a 6-well plate and cultured in complete medium for 24 h. Subsequently, sorafenib and/or CL26 was added to the culture and incubated for 48 h. Dead cells were carefully washed with PBS, and the remaining viable cells were fixed using 4% paraformaldehyde (Sigma-Aldrich) and visualized by staining with 2% crystal violet (Sigma-Aldrich).

[3] = system: sorafenib-sensitive and sorafenib-resistant HepG2 cells; assay: as above; format: cell-based, human; conditions: CL26 combined with sorafenib, 48 h
Protocol: as §1, §2

[4] = Animal toxicity studies; format: in vivo, C57BL/6 mice; conditions: 1 mg/kg or 10 mg/kg intraperitoneally
Protocol: C57BL/6 mice were administered CL26 at a low dose (1 mg/kg) or high dose (10 mg/kg) intraperitoneally to evaluate potential tissue damage associated with CL26 exposure. Major organs, including the liver, spleen, pancreas, kidney, heart, and lungs, were weighed prior to fixation in 10% formalin for subsequent paraffin embedding and H& E staining. Additionally, the serum concentrations of alanine aminotransferase (ALT) and aspartate aminotransferase (AST) were measured. The above analysis was performed at the Veterinary Diagnostic Laboratory of the City University of Hong Kong.

[5] = system: AGPAT4; assay: Competitive gel-based ABPP in live cells with CL26-alkyne probe; format: cell-based, human; conditions: Huh7 cells, empty vector vs FLAG-AGPAT4; silver staining of enriched proteins
Protocol: (§3) An in-gel fluorescence assay was performed to investigate the protein targets of CL26. Huh7 cells overexpressing AGPAT4 or cysteine mutants were pre-treated with CL26 at the indicated concentrations for 2 h, followed by CL26-alkyne (1 μM) treatment for another 2 h. Cells were harvested in RIPA buffer supplemented with protease and phosphatase inhibitors (Thermo Fisher Scientific #A32961). The proteins were precipitated by incubation with 6× volume of pre-chilled acetone at −20° C. overnight. Proteins were pelleted by centrifugation at 5000 g for 10 min and resuspended in PBS. The protein content was measured using the BCA assay and normalized to 2 mg/mL. Cell lysates (50 μL) were labelled with azide-fluor 545 by click reaction (final reaction mixture: azide-fluor 545 (25 μM), copper(II) sulfate (1 mM), TBTA (100 μM), and freshly prepared TCEP (1 mM)) at room temperature with constant agitation. After incubation for 1 h, the reaction was quenched with the sampling buffer and boiled at 90° C. for 5 min. Samples were subjected to SDS-PAGE, in-gel fluorescence was captured using ChemiDoc MP (Bio-Rad), and Coomassie Blue staining was performed. Similarly, immunoblotting was used to investigate the protein targets of CL26. Huh7 cells stably transfected with FLAG-AGPAT4 were pre-treated with either the solvent control or CL26 at the indicated concentrations for 2 h, followed by CL26-alkyne (10 μM) treatment for another 2 h. Cells were harvested, and lysates were prepared as described above unless specified. Anti-FLAG M 2 affinity beads were added in FLAG-tag pull-down experiments. After 4 h of incubation at 4° C., the beads were washed with TBS-T and resuspended in TBS-T. Sampling buffer was added and the samples were boiled for protein elution. The samples were subjected to SDS-PAG E and imaged for fluorescence signals before western blot analysis. In the probe pull-down experiment, 1 mL of lysate was labelled with desthiobiotin (DTB)-azide by a click reaction (final reaction mixture: copper(II) sulfate (1 mM), TBTA (100 μM), DTB-PEG-azide (100 μM), and freshly prepared TCEP (1 mM)). […]

[6] = molecular target: T1, AGPAT4 (Homo sapiens, UniProt Q9NRZ5); assay: as above; format: cell-based; conditions: Huh7 cells stably expressing FLAG-AGPAT4
T1 construct: The open reading frame (ORF) encoding the mRNA of AGPAT4 was cloned into the pDONR-221 donor vector; expressed in transfected cells; host or cells: Huh7
T1 sequence (Q9NRZ5 1-378): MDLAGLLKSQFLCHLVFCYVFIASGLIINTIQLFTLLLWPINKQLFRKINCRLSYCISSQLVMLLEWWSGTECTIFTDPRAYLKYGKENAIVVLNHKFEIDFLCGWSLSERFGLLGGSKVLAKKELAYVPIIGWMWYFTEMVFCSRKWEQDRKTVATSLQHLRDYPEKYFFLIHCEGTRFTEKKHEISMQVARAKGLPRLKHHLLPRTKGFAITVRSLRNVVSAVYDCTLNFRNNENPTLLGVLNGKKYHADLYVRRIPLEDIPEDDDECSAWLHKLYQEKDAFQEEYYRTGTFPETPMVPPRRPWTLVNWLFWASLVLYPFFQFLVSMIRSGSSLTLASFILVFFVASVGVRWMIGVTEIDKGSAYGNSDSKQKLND
Protocol: as §3

[7] = system: HCC PDX model #1 and sorafenib-resistant HCC PDX model #2
From the text: HCC PDX #1 were first expanded in NOD-SCID mice as described previously (21). Sorafenib-resistant HCC PDX #2 was established and expanded as described previously (29). Dissociated PDX tumors (5×10^5 cells in 100% Matrigel) were orthotopically injected into the left lobes of the livers of 6-week-old BA L B/c nude mice (n=6-10 per group). Drug administration was initiated three weeks after inoculation. The mice were then randomized for treatment with DMSO, sorafenib, 30% PET (30% PEG400/15% ethanol/5% Tween 80 in saline), or CL26 (1 mg/kg or 10 mg/kg, delivered intraperitoneally thrice per week). Seven weeks post-inoculation, tumor-bearing mice were sacrificed. The livers were harvested for histological and ex vivo limiting dilution analyses.

[8] = sorafenib orally plus CL26 intraperitoneally

O=C(CCl)NCc1ccc(-c2nc3ccccc3s2)o1 [CL26, N-[[5-(2-benzothiazolyl)-2-furanyl]methyl]-2-chloroacetamide]
specificity for AGPAT4 over other AGPAT LPAAT family members [1]: only targets AGPAT4 and no other related AGPAT isoforms
synergistic effect with sorafenib (excess over bliss scores) [2]: synergistic effect was observed solely in cells with high AGPAT4-expressing MHCC97L and MHCC97H cells
synergistic effect with sorafenib [3]: exclusively observed in sorafenib-resistant HepG2 cells
blood chemistry (AST, ALT), major organ weight and histology vs control mice [4]: no significant differences
toxicity associated with treatment [4]: minimal toxicity
off-target binding [5]: minimal off-target binding
in-gel fluorescence of CL26-alkyne-bound AGPAT4 upon CL26 pre-treatment (target engagement) [6]: significant decrease in fluorescence intensity
body weight vs control group ([7]; PDX mice treated with CL26): did not exhibit significant differences in body weight
p-mTOR levels, multiplex immunohistochemistry ([7]; PDX tumors): reduction in p-mTOR levels
self-renewal ability, ex vivo limiting dilution analysis ([7]; combination with sorafenib): decreased self-renewal ability
survival rate ([7]; combination with sorafenib, HCC PDX model #2): highest survival rate
number of tumor nodules [7, 8]: significant effect in reducing
tumor size [7, 8]: significant effect in reducing
tumor weight [7, 8]: significant effect in reducing
